The nature of data set [1]: Cytotoxicity assay (MTT) on J774. The class given is cell-based, murine. The conditions noted are these: mouse. The method, then:
(§1) The human non-cancer fibroblast cell line WI38 (ATCC Number CCL-75 – Standards, UK) and macrophage-like murine cell line J774 (ECACC Number 91051511 – Public Health England, UK) were grown in DMEM and RPMI medium (Gibco-Thermo Fisher Scientific, Merelbeke, Belgium or Sigma-Aldrich, Bornem, Belgium), respectively, supplemented with 10% fetal bovine serum and penicillin-streptomycin (100 UI/mL) (Sigma-Aldrich, Bornem, Belgium).
(§2) The cytotoxicity assays were performed as described previously with concentrations ranging from 50 to 1.40 nL/mL (dilution of 1.67). The selectivity index (SI) values were calculated using the formula:SI = IC50 on mammalian cells/IC50 on protozoan parasites

The nature of data set [2]: Cytotoxicity assay (MTT) on WI38. Format: cell-based. The conditions noted are these: human. The method, then:
as §1, §2

Data set [3] deals with Trypanosoma brucei brucei (Tbb, strain 427) bloodstream form. The experiment in a line: Anti-trypanosomal assay (alamar blue, 72 h) on Tbb bloodstream form. Format: cell-based. The conditions noted are these: for IC50: Trypanosoma brucei, Tbb bloodstream form. The method, then:
Trypanosoma brucei brucei, although not infecting humans because of its susceptibility to the innate immune system, has been used as a good predictive model in a first screening for the identification of anti-trypanosomal compounds [52, 53]. Bloodstream forms of this parasite (Tbb, strain 427) were grown in HMI-9 medium (IMDM-Gibco-Thermo Fisher Scientific, Merelbeke, Belgium-supplemented with 10% heat-inactivated fetal bovine serum (Sigma-Aldrich, Bornem, Belgium) and bloodstream form supporting factors).
The assay was performed in 96-well plates as previously described. The primary screening was repeated two times in triplicate at the concentrations of 50 nL/mL and 25 nL/mL (for 33 EOs) or 10 nL/mL and 5 nL/mL (for 4 EOs). Fifty µL of parasite culture (5 x 10^4 parasites/mL) was added with 50 µL of diluted EOs in each well. Ten µL of alamar blue (diluted with PBS at the ratio 1:1) was added to each well after 72 h of incubation and the plates were further incubated for 4 h. The fluorescence of the reduced reagent was measured on a spectrophotometer at 530 nm excitation and 590 nm emission wavelengths. Suramin was used as positive control. The EOs that inhibited more than 50% of the parasite growth at 25 or 10 nL/mL were analyzed for IC50 determination. Samples were tested in eight serial three-fold dilutions ranging from 50–0.02 nL/mL, except Cinnamomum cassia EO, Curcuma zedoaria EO, and Zingiber zerumbet EO (ranging from 10–0.005 nL/mL) and Dysphania ambrosioides EO (ranging from 5–0.002 nL/mL) in duplicate. IC50 values were calculated from dose response growth inhibition curves using Microsoft Excel files and mean IC50 values were obtained from at least three repetitions.
Background: The colour change of resazurin is a common sign of viable cells or microbes.

In a further data set the test system is Tbb bloodstream form. The conditions noted are these: cited from earlier work.
The test system of data set [4] is different human cancer cells. Particulars: cited from earlier work.
Another data set deals with Trypanosoma brucei. The conditions noted are these: read-out: Anti-trypanosomal IC50; cited from earlier work.
Data set [5] deals with CHO, WI38, Balb/3T3 fibroblast, and J774. Set-up: method as in PMID 24269775, PMID 27529211, PMID 16557466. The conditions noted are these: cited from earlier work.
[6] abbreviates: J774 macrophage-like murine cells, pure compounds of C. longa EO, read-out: Cytotoxicity (IC50) J774.
Where [7] appears, read: in Curcuma longa, pure compounds of C. longa EO, read-out: Anti-Trypanosomal Activity (IC50).
The mark [8] stands for this setting: WI38 human non-cancer fibroblast cells, pure compounds of C. longa EO, read-out: Cytotoxicity (IC50) WI38.
The mark [9] stands for this setting: highest tested concentration 50 µg/mL.

In brackets after ≈: the same amount, converted by molar mass. Where two headings read alike, the source gives them in different places.

Turning to `CC[C@@]1(O)C(=O)OCc2c1cc1n(c2=O)Cc2cc3ccccc3nc2-1` [Camptothecin, reference compound], the IC50 in data set [1] (J774 macrophage-like murine cells, positive control, read-out: Cytotoxicity (IC50) J774) came to 0.00732 ± 0.00129 µg/mL (≈ 0.021 µM); in data set [2] (WI38 human non-cancer fibroblast cells, positive control, read-out: Cytotoxicity (IC50) WI38) it was 0.035 ± 0.00963 µg/mL (≈ 0.1 µM).
Turning to `C=C1C=CC(C(C)CC(=O)C=C(C)C)CC1` (stereo not drawn) [Curlone], the half-inhibitory concentration (IC50) came out at 25.1 ± 3.47 µg/mL (≈ 115 µM) in data set [1] (setting [6]), 1.38 ± 0.52 µg/mL in data set [3] (setting [7]), 6.32 µM in data set [3] (read-out: Anti-trypanosomal IC50) and 43.6 ± 2.45 µg/mL (≈ 200 µM) in data set [2] (setting [8]). The “SI compared to cytotoxicity” value in data set [3] (compared to cytotoxicity on mammalian cells (WI38 and J774)) is listed as over 10.
Regarding `CC(C)=C1C/C=C(\C)CC/C=C(\C)CC1=O` [Germacrone], the “Anti-trypanosomal IC50” value with Tbb bloodstream form (Tbb bloodstream form, ref 32) is recorded as over 100 µg/mL.
`Cc1ccc(C(=O)Nc2ccc(S(=O)(=O)O)c3cc(S(=O)(=O)O)cc(S(=O)(=O)O)c23)cc1NC(=O)c1cccc(NC(=O)Nc2cccc(C(=O)Nc3cc(C(=O)Nc4ccc(S(=O)(=O)O)c5cc(S(=O)(=O)O)cc(S(=O)(=O)O)c45)ccc3C)c2)c1` [Suramin, reference compound]: the IC50 in data set [3] (positive control, read-out: Anti-Trypanosomal Activity (IC50)) was determined as 0.0215 ± 0.00262 µg/mL.
Turning to `CC(C)=CCCC(C)c1ccc(C)cc1` (stereo not drawn) [ar-Curcumene], the IC50 in data set [1] (setting [6]) worked out at 24 ± 2.64 µg/mL (≈ 119 µM); in data set [3] (setting [7]) it was 13.4 ± 2.46 µg/mL; in data set [2] (setting [8]), 23.1 ± 1.36 µg/mL (≈ 114 µM).
Consider `CC(C)=CC(=O)CC(C)c1ccc(C)cc1` (stereo not drawn) [ar-Turmerone], for which the “Apoptotic effects (release of mitochondrial cytochrome c, activation of capase-3)” value in data set [4] (at 40, 80, and 120 µg/mL) is listed as “apoptotic effects”. Also, the IC50 in data set [1] was 44.6 ± 1.41 µg/mL (≈ 206 µM); in data set [3] (setting [7]) it was 28.8 ± 3.93 µg/mL; in data set [2], 43.4 ± 3.89 µg/mL (≈ 201 µM).
On to `O=C(/C=C/c1ccc(O)cc1)CC(=O)/C=C/c1ccc(O)cc1` [bisdemethoxycurcumin], for which the concentration for half-maximal inhibition (IC50) in the data set on Trypanosoma brucei was 9.84 ± 0.84 µM.
In the case of `C=C1C2CCC(C2)C1(C)C` (stereo not drawn) [camphene], in the data set on Tbb bloodstream form (Tbb bloodstream form, ref 41), the “Anti-trypanosomal IC50” value is 80.66 ± 0.87 µg/mL.
Turning to `CC(C)=CCC[C@@H](C)CC=O` [citronellal], in the data set with Tbb bloodstream form (Tbb bloodstream form, ref 28), the “Anti-trypanosomal IC50” value is on record as 2.76 ± 1.55 µg/mL. In data set [5] (setting [9]), the “Cytotoxicity at the highest tested concentration” value was “did not show any cytotoxicity”.
As to `CC(C)=CCCC(C)CCO` (stereo not drawn) [citronellol], in the data set with Tbb bloodstream form (Tbb bloodstream form, ref 28), the “Anti-trypanosomal IC50” value is given as 6.45 ± 4.86 µg/mL. Moreover, the “Cytotoxicity at the highest tested concentration” value in data set [5] (setting [9]) was “did not show any cytotoxicity”.
On to `COc1cc(/C=C/C(=O)CC(=O)/C=C/c2ccc(O)c(OC)c2)ccc1O` [curcumin], for which the IC50 in the data set on Trypanosoma brucei was about 5 µM.
For the compound `COc1cc(/C=C/C(O)=C/C(=O)/C=C/c2ccc(O)cc2)ccc1O` [demethoxycurcumin], the IC50 in the data set on Trypanosoma brucei was 7.19 ± 1.02 µM.
With `CC12CCC(CC1)C(C)(C)O2` [eucalyptol], the “Anti-trypanosomal IC50” value in the data set on Tbb bloodstream form (Tbb) is recorded as 83.15 µg/mL.
`C=C(C)[C@H]1CC=C(C)CC1` [limonene]: the “Anti-trypanosomal IC50” value with Tbb bloodstream form (Tbb bloodstream form, ref 28) is 4.24 ± 1.27 µg/mL; in the data set with Tbb bloodstream form (Tbb bloodstream form, ref 29) it was 5.6 ± 1.6 µg/mL.
`C=CC(C)(O)CCC=C(C)C` (stereo not drawn) [linalool]: the “Anti-trypanosomal IC50” value in the data set on Tbb bloodstream form (Tbb bloodstream form, ref 30) is reported as 2.5 µg/mL. Further, the “Cytotoxicity at the highest tested concentration” value in data set [5] (highest tested concentration 100 µg/mL) is recorded as “did not show any cytotoxicity”.
As for `C=C1C=CC(C(C)CCC=C(C)C)CC1` (stereo not drawn) [β-Sesquiphellandrene], the “Apoptotic effects (release of mitochondrial cytochrome c, activation of capase-3)” value in data set [4] (at 5.10 µg/mL) was “apoptotic effects”. Also, the IC50 stood at 21 ± 2.72 µg/mL (≈ 103 µM) in data set [1] (setting [6]), 9.89 ± 1.18 µg/mL in data set [3] (setting [7]) and 19.1 ± 1.58 µg/mL (≈ 93.5 µM) in data set [2] (setting [8]).

What is called IC50 is the point on the concentration scale where inhibition reaches its midpoint.

The values above are taken from paper PMC6471621, “Evaluation of the Anti-Trypanosomal Activity of Vietnamese Essential Oils, with Emphasis on Curcuma longa L. and Its Components” (Molecules, 2019).
